# Entries after “also recorded” stand apart in the source; their conditions may differ. Where two headings read alike, the source gives them in different places.
# What was measured:
# [1] = system: mouse bone marrow derived dendritic cells (mBMDC); experiment: IL-6 induction in mouse bone marrow derived dendritic cells (ELISA); type: cell-based; conditions: relative to Cmpd 1 / within series
# Experimental: (§1) The above assays were utilized to compare the derivatives of the lead pyrimidoindole for their ability to activate mouse and human TLR4. […] Each cytokine induction curve was first converted to a percent activity curve, and then the AUC of the percent activity curve was calculated. The process of converting to a percent activity curve allowed subtracting background and adjusting for plate-to-plate variation.
# (§2) BMDC were prepared from C57BL/6 mice as described. See e.g., Wu, C. […] BMDC (10^5 cells per well) were plated in 96-well plates in 200 μL of complete RPMI1640 supplemented with 10% fetal calf serum (FCS; Sigma Aldrich), 100 U/mL penicillin, and 100 μg/mL streptomycin (Invitrogen). […] After 18 h incubation, the cell culture supernatants were collected. LPS (purified LPS, Invivogen, San Diego, Calif.) or MPLA (1 μg/mL synthetic MPLA, Invivogen, San Diego, Calif.) were used as positive controls. […] The AUC was calculated from BMDC dose-response curves using Prism 5 (GraphPad, San Diego). Each cytokine induction curve was first converted to a percent activity curve, and then the AUC of the percent activity curve was calculated. The process of converting to a percent activity curve allowed subtracting background and adjusting for plate-to-plate variation.
# mouse TLR4 = target: T1, mouse TLR4 (Mus musculus, UniProt Q9JHF9+Q9QUK6); experiment: Murine TLR4 HEK Blue NFκB/SEAP reporter assay; type: cell-based; conditions: for mouse TLR4, area under curve (AUC) values normalized to Cmpd 1: mTLR4 HEK transfectoma, 312 nM to 10 μM, Cmpd 1 set at 100
# T1 construct: host or cells: HEK293 (HEK Blue) cells with NFκB/SEAP reporter
# T1 sequence (Q9QUK6 26-835): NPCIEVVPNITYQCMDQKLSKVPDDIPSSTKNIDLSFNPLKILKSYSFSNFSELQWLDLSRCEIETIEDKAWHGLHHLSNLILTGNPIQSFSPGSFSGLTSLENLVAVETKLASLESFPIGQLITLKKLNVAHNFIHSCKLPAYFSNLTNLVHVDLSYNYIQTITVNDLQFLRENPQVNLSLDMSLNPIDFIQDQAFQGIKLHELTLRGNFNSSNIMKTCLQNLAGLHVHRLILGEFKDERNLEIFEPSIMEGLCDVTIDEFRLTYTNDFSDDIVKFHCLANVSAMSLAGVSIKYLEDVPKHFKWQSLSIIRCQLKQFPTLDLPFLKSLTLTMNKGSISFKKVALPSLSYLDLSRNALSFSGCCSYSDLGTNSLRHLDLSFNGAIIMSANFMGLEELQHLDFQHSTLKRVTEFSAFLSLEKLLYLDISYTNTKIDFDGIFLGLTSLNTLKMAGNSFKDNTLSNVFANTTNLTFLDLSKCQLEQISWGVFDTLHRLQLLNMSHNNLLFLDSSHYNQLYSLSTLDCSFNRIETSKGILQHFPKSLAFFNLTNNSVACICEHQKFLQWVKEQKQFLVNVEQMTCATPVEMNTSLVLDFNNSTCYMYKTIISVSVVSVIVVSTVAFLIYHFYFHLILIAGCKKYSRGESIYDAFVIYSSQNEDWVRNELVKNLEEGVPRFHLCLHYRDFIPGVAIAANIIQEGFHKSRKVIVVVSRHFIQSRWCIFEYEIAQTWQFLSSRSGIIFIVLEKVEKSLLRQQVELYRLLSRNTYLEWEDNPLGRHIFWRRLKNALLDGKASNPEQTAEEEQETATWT
# T1 sequence (Q9JHF9 19-160): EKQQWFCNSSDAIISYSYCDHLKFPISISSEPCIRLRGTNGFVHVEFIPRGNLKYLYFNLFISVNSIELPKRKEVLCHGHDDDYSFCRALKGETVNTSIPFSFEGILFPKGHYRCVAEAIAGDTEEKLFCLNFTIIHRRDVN
# Experimental: as §1
# (§3) The culture supernatants were harvested after a 20-24 h incubation period. SEAP activity in the supernatants was determined by a colorimetric assay, using either the SEAPorter Assay Kit (Imgenex), with absorbance read at 405 nm, or QuantiBlue (Invivogen), with absorbance read at 630 nm.
# [2] = system: human peripheral blood mononuclear cells (hPBMC); experiment: IL-8 release from human PBMC (ELISA); type: cell-based; conditions: compound 1 10 μM
# Experimental: Human PBMC were isolated from buffy coats obtained from the San Diego Blood Bank (San Diego, Calif.) as described previously. […] The levels of IL-8 in the supernatants were determined by ELISA (BD Biosciences, La Jolla, Calif.). Human cell cultures were treated with 10 ng/mL LPS as the positive control.
# human TLR4 = target: T2, human TLR4 (Homo sapiens, UniProt O00206+Q9Y6Y9); experiment: Human TLR4 HEK Blue NFκB/SEAP reporter assay; type: cell-based; conditions: for human TLR4, values normalized to Cmpd 1: hTLR4 HEK293 transfectoma, all compounds tested at 10 μM, Cmpd 1 set at 100
# T2 construct: host or cells: HEK293 (HEK Blue) cells with NFκB/SEAP reporter
# T2 sequence (O00206 24-839): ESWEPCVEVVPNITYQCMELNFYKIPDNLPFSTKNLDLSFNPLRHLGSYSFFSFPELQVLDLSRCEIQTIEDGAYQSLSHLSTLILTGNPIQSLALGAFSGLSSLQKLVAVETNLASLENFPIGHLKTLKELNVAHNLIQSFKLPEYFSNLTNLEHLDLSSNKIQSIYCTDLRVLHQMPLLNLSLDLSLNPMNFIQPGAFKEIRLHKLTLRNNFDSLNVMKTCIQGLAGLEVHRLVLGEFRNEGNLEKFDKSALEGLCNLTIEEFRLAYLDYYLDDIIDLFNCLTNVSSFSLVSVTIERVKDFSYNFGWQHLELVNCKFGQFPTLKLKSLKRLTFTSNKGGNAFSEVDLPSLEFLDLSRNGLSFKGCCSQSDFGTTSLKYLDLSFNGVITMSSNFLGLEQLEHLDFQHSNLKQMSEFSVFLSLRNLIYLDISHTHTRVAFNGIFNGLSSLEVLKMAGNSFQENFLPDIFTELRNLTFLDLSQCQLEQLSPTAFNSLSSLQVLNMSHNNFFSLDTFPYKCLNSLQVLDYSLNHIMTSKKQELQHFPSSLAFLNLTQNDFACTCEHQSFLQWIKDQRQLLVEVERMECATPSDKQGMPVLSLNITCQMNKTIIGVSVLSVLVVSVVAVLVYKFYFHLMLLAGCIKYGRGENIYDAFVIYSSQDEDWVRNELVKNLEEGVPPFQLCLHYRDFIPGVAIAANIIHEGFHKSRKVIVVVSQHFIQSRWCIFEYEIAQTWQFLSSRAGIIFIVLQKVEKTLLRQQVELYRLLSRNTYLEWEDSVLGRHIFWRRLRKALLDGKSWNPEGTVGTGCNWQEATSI
# T2 sequence (Q9Y6Y9 19-160): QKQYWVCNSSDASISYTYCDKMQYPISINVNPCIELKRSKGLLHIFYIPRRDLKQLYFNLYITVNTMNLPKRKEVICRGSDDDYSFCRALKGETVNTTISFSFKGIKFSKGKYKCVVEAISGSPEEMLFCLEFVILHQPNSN
# Experimental: as §1, §3
# [3] = system: TLR2, TLR3, TLR4/MD-2/CD14, TLR5, TLR7, TLR8, or TLR9 expressing HEK293 cells; conditions: 10 μM, 20-24 h, SEAP
# Text: To identify the target receptor, we used HEK293 cells stably transfected with individual human (h) TLRs: TLR2, TLR3, TLR4/MD-2/CD14, TLR5, TLR7, TLR8, or TLR9 expressing HEK293 cells, along with an NFκB activation reporter producing secreted embryonic alkaline phosphatase (SEAP).
# [4] = system: mouse bone marrow derived dendritic cells (mBMDC)
# Experimental: 0.5% DMSO in saline served as a vehicle controls. The levels type I IFN were determined using L929-ISRE luciferase reporter cell line using murine IFN beta standard (FIG. 7A). IP-10 levels were determined by ELISA (FIG. 7B). Data shown are mean±SEM of triplicates in representative of two independent experiments showing similar results. * denotes p<0.05 was considered as significant compared to vehicle using one way ANOVA with Dunnett's post hoc testing.
# L929 cells stably expressing an interferon sensitive response element (ISRE) luciferase reporter construct were kindly provided by Dr. B. Beutler (UT Southwestern, Texas). […] The bioactivity of type I IFN in mBMDC supernatants was measured by luciferase assay using L929-ISRE cells as described previously. […] Thus, 50 μL of μBMDC supernatant was incubated with L929-ISRE cells in 50 μL of DMEM for 6 h. Mu-IFN Beta Standard (PBL Interferon Source, Piscataway, N.J.) was used as a standard. The luciferase activities were measured by Steady-Glo luciferase assay buffer (Promega, Madison, Wis.).
# [5] = system: mouse bone marrow derived dendritic cells (mBMDC); experiment: IL-6 induction in mouse bone marrow derived dendritic cells (ELISA); type: cell-based
# [6] = system: mouse bone marrow derived dendritic cells (mBMDC); experiment: IP-10 induction in mBMDC (ELISA), surrogate marker of type I IFN; type: cell-based
# [7] = system: mouse bone marrow derived dendritic cells (mBMDC); experiment: as above; type: cell-based; conditions: relative to Cmpd 1
# Experimental: In addition to the production of inflammatory cytokines (IL-6, IL-12, TNFα, etc.) mediated by NFκB activation, TLR4 signaling can result in the production of type I interferons, a feature that is not only important for activation of dendritic cells leading to good adjuvant activity, but would also be important for rapid defense against a variety of pathogens, particularly viruses. […] To determine the relative ability of all compounds to induce the production of type 1 IFN, each was evaluated in mouse bone marrow derived dendritic cells as shown in Tables 1-3.
# as §2
# In addition, the levels of IP-10, a surrogate marker of type I IFN, in the supernatants were determined by ELISA (R&D Systems, Minneapolis, Minn.).
# C57BL/6 mice [8] = experiment: Protection from LPS/galactosamine-induced lethal liver injury; type: in vivo, mouse; conditions: for Survival: i.p. pretreatment (500 nmol Cmpd, 40 μg MPLA), next day LPS 0.2 μg + galactosamine 12 mg per animal, survivors/treated
# Experimental: FIGS. 11A-11B depict that administration of Cmpd 42 and Cmpd 33 protects hosts from LPS-induced lethal liver injury. FIG. 11A: Schematic showing that C57BL/6 mice were intraperitoneously injected with 500 nmol Cmpd. 42 (n=11) or Cmpd 33 (n=11). 40 μg MPLA (n=9) and vehicle (n=9) were used as positive and negative controls, respectively. Next day, mice were challenged with LPS (0.2 μg/animal) and galactosamine (12 mg/animal). FIG. 11B: Histogram showing results of sera collected 1.5 h post challenge and measured for TNFα. *:p<0.05 compared to vehicle treated mice.
# Lipopolysaccharide (LPS), a TLR4 ligand, causes severe lethal liver injury when administered with galactosamine. Pretreatment of mice with MPLA is known to improve the survival in this model. To study whether Cmpd 42 and Cmpd 33 are able to act as immunomodulatory agents similar to MPLA, the mice were treated with Cmpd 42 or Cmpd 33 and challenged with LPS/galatosamine the next day, as depicted in FIG. 11A. Over 80% of Cmpd 42 and 100% of Cmpd 33-treated mice survived.
# C57BL/6 mice [9] = system: C57BL/6 mice
# mBMDC = experiment: MTT viability assay in mBMDC; conditions: 18 h, concentrations up to 10 μM
# Experimental: Cytotoxicity of the compounds was evaluated by MTT assay as a measure of viability. mBMDC (10^5/well) were incubated with graded concentrations of the compounds for 18 h and compared with vehicle (0.5% DMSO) and MPLA (1 μg/mL). […] (FIG. 6B) The cells were lysed after the overnight incubation with MTT reagents, and absorbance at 570 nm was measured, subtracting the reference absorbance at 650 nm. Data shown are mean±SEM of triplicates and are representative of two independent experiments showing similar results.
# [10] = WT vs Cd14-/- mBMDC, 3.7 μM overnight
molecule,measurement,setting,value
"O=C(CSc1nc2c([nH]c3ccccc32)c(=O)n1-c1ccccc1)NC1CCCCC1 [Compound 1, N-cyclohexyl-2-((4-oxo-3-phenyl-4,5-dihydro-3H-pyrimido[5,4-b]indol-2-yl)thio)acetamide]",IL-6 activity in mBMDC (in words),[1],the most active; also recorded: high IL-6
same,mouse TLR4 reporter cell activation (in words),mouse TLR4,dose-dependent activation
same,"relative reporter activation, murine TLR4 cells",mouse TLR4; 5 μM Cmpd 1,1.52±0.03
same,"mouse TLR4, area under curve (AUC) values normalized to Cmpd 1",mouse TLR4,100
same,"IL-8 released by hPBMC cultures (average, SD)",[2],7.8 ± 0.8 ng/mL
same,human TLR4 reporter cell activation (in words),human TLR4,dose-dependent activation
same,OD630 of human TLR4 reporter cells,human TLR4; 10 μM Cmpd 1,0.88
same,"human TLR4, values normalized to Cmpd 1",human TLR4,100
same,TLR selectivity among TLR transfected HEK293 reporter cells,[3],only those expressing TLR4/MD-2/CD14 responded
same,CD14 dependence of type I IFN production,[4]; [10],not dependent on CD14
same,type I IFN production,"[4]; graded doses, mBMDC overnight",dose-dependent response
same,"IL-6 released by mBMDC cultures (average, SD)",[5]; 5 μM Cmpd 1,10.5 ng/mL
same,IL-6 secretion in TLR4 deficient vs wild-type mBMDC,"[5]; 10 μM, 18 h",completely abrogated
same,CD14 dependence of IL-6 production,[5]; [10],not dependent on CD14; also recorded: retains IL-6 activity
same,IP-10 production,[6],dose-dependent response
same,IP-10 production in mBMDC (in words),[6],high IP-10 production
same,IP-10 released by mBMDC cultures (average),[6],590.0 ± 10.5 pg/mL
"CC(C)(C)CCNC(=O)CSc1nc2c([nH]c3ccccc32)c(=O)n1-c1ccccc1 [Compound 28, N-(3,3-dimethylbutyl)-2-((4-oxo-3-phenyl-4,5-dihydro-3H-pyrimido[5,4-b]indol-2-yl)thio)acetamide]",IL-6 activity in mBMDC (in words),[1],among the most active of the alkyls; also recorded: high IL-6
same,IP-10 production in mBMDC (in words),[7],high IP-10 production
same,"mouse TLR4, area under curve (AUC) values normalized to Cmpd 1",mouse TLR4,126
same,"human TLR4, values normalized to Cmpd 1",human TLR4,72
"CCC(C)CCNC(=O)CSc1nc2c([nH]c3ccccc32)c(=O)n1-c1ccccc1 (stereo not shown) [Compound 29, N-(3-methylpentyl)-2-((4-oxo-3-phenyl-4,5-dihydro-3H-pyrimido[5,4-b]indol-2-yl)thio)acetamide]",IL-6 activity in mBMDC (in words),[1],diminished IL-6 release
same,IP-10 production in mBMDC (in words),[7],nearly equivalent induction of IP-10
same,"mouse TLR4, area under curve (AUC) values normalized to Cmpd 1",mouse TLR4,29
same,"human TLR4, values normalized to Cmpd 1",human TLR4,17
"CCCC(C)NC(=O)CSc1nc2c([nH]c3ccccc32)c(=O)n1-c1ccccc1 (stereo not shown) [Compound 30, 2-((4-oxo-3-phenyl-4,5-dihydro-3H-pyrimido[5,4-b]indol-2-yl)thio)-N-(pentan-2-yl)acetamide]",IL-6 activity in mBMDC (in words),[1],diminished IL-6 release
same,IP-10 production in mBMDC (in words),[7],nearly equivalent induction of IP-10
same,"mouse TLR4, area under curve (AUC) values normalized to Cmpd 1",mouse TLR4,17
same,"human TLR4, values normalized to Cmpd 1",human TLR4,13
"O=C(CSc1nc2c([nH]c3ccccc32)c(=O)n1-c1ccccc1)NCC1CCCO1 (stereo not shown) [Compound 33, 2-((4-oxo-3-phenyl-4,5-dihydro-3H-pyrimido[5,4-b]indol-2-yl)thio)-N-((tetrahydrofuran-2-yl)methyl)acetamide]",IL-6 activity in mBMDC (in words),[1],diminished IL-6 release
same,IP-10 production in mBMDC (in words),[7],nearly equivalent induction of IP-10
same,"mouse TLR4, area under curve (AUC) values normalized to Cmpd 1",mouse TLR4,21
same,"human TLR4, values normalized to Cmpd 1",human TLR4,13
same,serum TNFα,"C57BL/6 mice [8]; […] post challenge, compared to vehicle treated mice",significantly lower level
same,mice survived,"C57BL/6 mice [8]; i.p. pretreatment 500 nmol, LPS/galactosamine challenge next day",100%
same,Survival,C57BL/6 mice [8],11/11
same,maximum tolerated dose relative to MPLA,C57BL/6 mice [9]; liver injury model with galactosamine,over 100 times
same,IL-6 secretion in MyD88 null dendritic cells,"[5]; 5 μM overnight, vs C57BL/6 WT",significantly impaired
same,IP-10 induction in LPS mutant (Trif lps/lps) cells,"[6]; 5 μM overnight, vs C57BL/6 WT",significantly decreased
"CCCn1c2ccccc2c2nc(SCC(=O)NC3CCCCC3)n(-c3ccccc3)c(=O)c21 [Compound 48, N-cyclohexyl-2-((4-oxo-3-phenyl-5-propyl-4,5-dihydro-3H-pyrimido[5,4-b]indol-2-yl)thio)acetamide]",cell viability (MTT),mBMDC,did not reduce cell viability
"N#CCn1c2ccccc2c2nc(SCC(=O)NC3CCCCC3)n(-c3ccccc3)c(=O)c21 [Compound 51, 2-((5-(cyanomethyl)-4-oxo-3-phenyl-4,5-dihydro-3H-pyrimido[5,4-b]indol-2-yl)thio)-N-cyclohexylacetamide]","mouse TLR4, area under curve (AUC) values normalized to Cmpd 1",mouse TLR4,55
same,"human TLR4, values normalized to Cmpd 1",human TLR4,19
same,cell viability (MTT),mBMDC,did not reduce cell viability
"monophosphoryl lipid A [MPLA, reference compound]",Survival,C57BL/6 mice [8],8/9
same,Survival,"C57BL/6 mice [9]; i.p. 500 nmol Cmpd 42, MPL 40 μg or LPS 0.2 μg mixed with galactosamine 12 mg, survivors/treated",0/5
same,Serum TNFα levels,"C57BL/6 mice [9]; with galactosamine 12 mg/animal, up to 15 μmol/animal Cmpd 33, 1 μmol/animal Cmpd 42, 10 μg/animal MPLA",induced detectable TNFα

# Source: US9505768B2, “Compositions and methods for modulating TLR4” (The Regents of the University of California, priority 2012, dated 2016)
